Data on 2 substances can be found in patent US20220152150A1, “MESOPOROUS SILICA PARTICLES COMPOSITIONS FOR VIRAL DELIVERY” (Novartis AG, priority 2019, published 2022).

The assay concerns EGFRvIII CARTs. Nature of the assay: Cytokine production of EGFRvIII CARTs stimulated by ligand-presenting MSRs (multiplex cytokine analysis). Type of assay: cell-based. Particulars: lipid-coated MSRs, 1% PE-biotin in the lipid coating; FIG. 8. On the procedure:
MSRs with surface-immobilized ligands were prepared as described in Cheung, A. S., et al., Scaffolds that mimic antigen-presenting cells enable ex vivo expansion of primary T cells. Nature Biotechnology, 36(2), 160-169.
Briefly, liposomes primarily composed of POPC with 1 mol % PE-biotin were formed using a thin film rehydration method and extrusion through a 100 nm polycarbonate membrane. Hydroxyl functionalized MSRs were incubated with the liposomes to allow the formation of a supported lipid bilayer on the MSR surface (FIG. 6). To functionalize the MSRs with CD3 and CD28 agonistic antibodies, MSRs were washed several times with PBS, incubated with streptavidin, and then tethered with biotinylated CD3 and CD28 antibodies. For MSR-immobilization of EGFRvIII CAR-binding peptides, a biotinylated EGFRvIII CAR-binding peptide was used (FIG. 7). For BCMA CART stimulation, recombinant BCMAFc protein was biotinylated using biotin-NHS and similarly coupled to the MSR surface.
After incubation with the desired ligands, MSRs were washed several times with PBS and resuspended in culture medium at various concentrations and incubated with T cells. T cell proliferation was read out using CFSE labeling of the T cells and assessing dye dilution by flow cytometry. Cytokine production was assessed using a multiplex cytokine analysis method (Mesoscale […] V-Plex).
EGFRvIII CARTs produced interferon gamma and IL-2 in response to EGFRvIII CAR-binding peptide bound to the surface of the MSRs, while free EGFRvIII CAR-binding peptide in solution, a non-stimulating peptide (OVA) presented on the MSRs, or undecorated MSRs gave no response from the CARTs (FIG. 8). In another experiment, the proliferation of EGFRvIII CARTs were monitored in response to various stimuli using cell counting (FIG. 9).

Regarding “free EGFRvIII CAR-binding peptide: EGFRvIII CAR-binding peptide (LEEKKGNYVVTDH (SEQ ID NO: 674)) free in solution”, the IL-2 production entry is “no response” and the interferon gamma production result is “no response”.
Turning to “EGFRvIII CAR-binding peptide bound to the surface of the MSRs: biotinylated EGFRvIII CAR-binding peptide (LEEKKGNYVVTDH, SEQ ID NO: 674) immobilized via streptavidin on lipid-coated MSRs”, the IL-2 production entry is given as “produced” and the interferon gamma production entry is given as “produced”.
